Measured values as given in the supplement of paper PMC13380429.

Legend:
Details in all cases: 72 h
[1] = tested on: Caco-2; assay: cell viability relative to DMSO; higher = less toxic
[2] = tested on: Calu-3; assay: as above
[3] = tested on: HepG2; assay: as above
[4] = tested on: U2OS; assay: as above
[5] = tested on: Vero E6; assay: as above
[6] = tested on: Caco-2; assay: relative viability EC50 (midpoint between 100% and the lowest measured viability); higher = less toxic
[7] = tested on: Calu-3; assay: as above
[8] = tested on: HepG2; assay: as above
[9] = tested on: U2OS; assay: as above
[10] = tested on: Vero E6; assay: as above
[11] = tested on: Caco-2; assay: drug sensitivity score (DSS) for viability; higher = more toxic; extreme values may be limits of the assay
[12] = tested on: Calu-3; assay: as above
[13] = tested on: HepG2; assay: as above
[14] = tested on: U2OS; assay: as above
[15] = tested on: Vero E6; assay: as above

| Compound | cell viability ([1]; 1 nM) [%] | cell viability ([1]; 10 nM) [%] | cell viability ([1]; 100 nM) [%] | cell viability ([1]; 1000 nM) [%] | cell viability ([1]; 10000 nM) [%] | cell viability ([2]; 1 nM) [%] | cell viability ([2]; 10 nM) [%] | cell viability ([2]; 100 nM) [%] | cell viability ([2]; 1000 nM) [%] | cell viability ([2]; 10000 nM) [%] | cell viability ([3]; 1 nM) [%] | cell viability ([3]; 10 nM) [%] | cell viability ([3]; 100 nM) [%] | cell viability ([3]; 1000 nM) [%] | cell viability ([3]; 10000 nM) [%] | cell viability ([4]; 1 nM) [%] | cell viability ([4]; 10 nM) [%] | cell viability ([4]; 100 nM) [%] | cell viability ([4]; 1000 nM) [%] | cell viability ([4]; 10000 nM) [%] | cell viability ([5]; 1 nM) [%] | cell viability ([5]; 10 nM) [%] | cell viability ([5]; 100 nM) [%] | cell viability ([5]; 1000 nM) [%] | cell viability ([5]; 10000 nM) [%] | relative viability EC50 [6] [µM] | relative viability EC50 [7] [µM] | relative viability EC50 [8] [µM] | relative viability EC50 [9] [µM] | relative viability EC50 [10] [µM] | drug sensitivity score [11] | drug sensitivity score [12] | drug sensitivity score [13] | drug sensitivity score [14] | drug sensitivity score [15] |
| --- | --- | --- | --- | --- | --- | --- | --- | --- | --- | --- | --- | --- | --- | --- | --- | --- | --- | --- | --- | --- | --- | --- | --- | --- | --- | --- | --- | --- | --- | --- | --- | --- | --- | --- | --- |
| CN[C@@H](C)C(=O)N[C@H](C(=O)N1CCC[C@H]1C(=O)Nc1sc(-c2ncco2)nc1-c1ccccc1)C1CCCCC1 [CUDC-427] | 98.1 | 101 | 98.5 | 109 | 99.7 | 96.6 | 107 | 86.5 | 102 | 85.6 | 111 | 91.5 | 96.3 | 90 | 95.2 | 98 | 99.9 | 99.2 | 108 | 92.7 | 94.2 | 96.6 | 105 | 105 | 111 | > 10 | > 10 | > 10 | > 10 | > 10 | 0 | 0.1 | 0 | 0 | 0 |
| COC(=O)c1ccccc1NC(=O)c1ccc(F)cc1 [EXO-1] | 99.5 | 93 | 100 | 103 | 100 | 97.9 | 98.1 | 99.6 | 95.6 | 96.5 | 95.6 | 99.9 | 91.8 | 94.7 | 111 | 98.7 | 91.8 | 98.3 | 95.7 | 98.8 | 95.2 | 94.6 | 91 | 93.6 | 99.5 | > 10 | > 10 | > 10 | > 10 | > 10 | 0 | 0 | 0 | 0 | 0 |
| O=C(N[C@@H]1Cc2ccccc2N(C[C@@H](O)CO)C1=O)c1cc2cc(Cl)sc2[nH]1 [GPi-688] | 101 | 98 | 96.9 | 94.2 | 92.9 | 102 | 99.3 | 99.9 | 94.1 | 87.8 | 96 | 104 | 98.1 | 104 | 100 | 98.4 | 102 | 95.2 | 96.8 | 94.7 | 99.9 | 102 | 104 | 100 | 90.5 | > 10 | > 10 | > 10 | > 10 | > 10 | 0 | 0.3 | 0 | 0 | 0 |
| CCCn1c(=O)c2[nH]c(-c3cnn(Cc4cccc(C(F)(F)F)c4)c3)nc2n(CC)c1=O [GS-6201] | 98.5 | 104 | 105 | 108 | 100 | 103 | 109 | 96.3 | 96.1 | 97.4 | 106 | 91.6 | 104 | 94.2 | 96.8 | 96.9 | 101 | 96.3 | 105 | 100 | 98.5 | 96.1 | 96.5 | 97.8 | 104 | > 10 | > 10 | > 10 | > 10 | > 10 | 0 | 0 | 0 | 0 | 0 |
| O=C(O)CNC(=O)c1c(O)c2ccccc2n(Cc2ccccc2)c1=O [IOX2] | 95.4 | 97.1 | 92 | 102 | 93.2 | 87 | 88 | 85.8 | 96 | 87.4 | 108 | 106 | 108 | 93.9 | 106 | 96.2 | 102 | 94.8 | 98.5 | 95.6 | 104 | 99.7 | 102 | 106 | 98.4 | > 10 | > 10 | > 10 | > 10 | > 10 | 0 | 0 | 0 | 0 | 0 |
| CCOc1ccc(Nc2nc(-c3c(C)nc4ccccn34)cs2)cc1 [JK-184] | 102 | 96.9 | 91.3 | 57.4 | 33.2 | 101 | 90.5 | 103 | 57.6 | 39.4 | 94.9 | 99.5 | 90.6 | 86.9 | 40.1 | 106 | 100 | 79.9 | 26.9 | 19.7 | 98.3 | 97.6 | 77.8 | 31.3 | 29.5 | 0.578 | 0.715 | 1.68 | 0.209 | 0.152 | 9.2 | 8.3 | 5.3 | 16 | 15.5 |
| O=C1Nc2ccccc2C12OCC1(CO2)COC2(OC1)C(=O)Nc1ccccc12 (stereo not given) [JW-67] | 87.2 | 92.5 | 91.8 | 93.2 | 88.1 | 90.8 | 92.1 | 103 | 87.2 | 85.3 | 97.1 | 98.6 | 93.6 | 98.4 | 105 | 97.6 | 97.5 | 102 | 94.6 | 92.5 | 88.4 | 103 | 91.2 | 90.5 | 86 | > 10 | > 10 | > 10 | > 10 | > 10 | 0 | 0.1 | 0 | 0 | 0.1 |
| CC(C)n1nc(-c2ccc3oc(N)nc3c2)c2c(N)ncnc21 [MLN0128] | 102 | 72 | 45.2 | 26.1 | 20.1 | 88.6 | 61.2 | 31.5 | 28.4 | 22.8 | 106 | 91.9 | 32.4 | 26.6 | 12.9 | 100 | 92.1 | 35 | 18.4 | 12 | 97.9 | 93.5 | 48.7 | 35.6 | 16.5 | 0.0309 | 0.0095 | 0.0449 | 0.049 | 0.0855 | 23.2 | 27.5 | 24.6 | 24.4 | 19.7 |
| OC[C@H]1O[C@@H](n2cnc3c(NC4CCCC4)ncnc32)[C@H](O)[C@@H]1O [N6-cyclopentyladenosine] | 92.8 | 99.7 | 109 | 104 | 116 | 108 | 96.6 | 94 | 102 | 100 | 112 | 95.6 | 99.1 | 92.7 | 100 | 97.7 | 98.8 | 98.2 | 102 | 112 | 92.4 | 91.4 | 92.2 | 93.9 | 102 | > 10 | > 10 | > 10 | > 10 | > 10 | 0 | 0 | 0 | 0 | 0 |
| COc1ccccc1N1CCN(CCCCN2C(=O)c3ccccc3C2=O)CC1 [NAN-190] | 99.7 | 85.8 | 99.2 | 86.6 | 94.8 | 95.5 | 94.3 | 107 | 101 | 102 | 91.6 | 108 | 94 | 109 | 103 | 103 | 100 | 101 | 94.7 | 101 | 99.4 | 94.5 | 91.5 | 94.3 | 103 | > 10 | > 10 | > 10 | > 10 | > 10 | 0 | 0 | 0 | 0 | 0 |
| COc1cc(C#N)ccc1S(=O)(=O)Nc1ccc2c(c1)cc(C)c(=O)n2C [NI-57] | 99.1 | 97.4 | 94.8 | 91.1 | 83.5 | 98.7 | 110 | 101 | 101 | 104 | 106 | 114 | 102 | 94.1 | 85.3 | 101 | 98.2 | 101 | 98.5 | 98.9 | 98.7 | 103 | 99.6 | 95.7 | 96 | > 10 | > 10 | > 10 | > 10 | > 10 | 0.6 | 0 | 0.7 | 0 | 0 |
| O=C(Nc1cc(C(F)(F)F)cc(C(F)(F)F)c1)Nc1c(Br)cc(Br)cc1-c1nnn[nH]1 [NS-5806] | 93.7 | 97.8 | 97.1 | 98.2 | 91.7 | 94.2 | 95.4 | 95.3 | 98.2 | 87.9 | 107 | 95.3 | 106 | 96.6 | 108 | 98.6 | 103 | 94.6 | 105 | 98.9 | 98.8 | 99.2 | 105 | 102 | 102 | > 10 | > 10 | > 10 | > 10 | > 10 | 0 | 0 | 0 | 0 | 0 |
| FC(F)(F)c1ccc(CNc2ccc(Cc3c[nH]c4ncccc34)cn2)cc1 [PLX647] | 96 | 102 | 94.7 | 94.2 | 91.3 | 102 | 96.4 | 105 | 93.9 | 94.7 | 100 | 97.6 | 97.4 | 101 | 86.9 | 104 | 97.6 | 101 | 97.7 | 96.4 | 95.7 | 98.8 | 96.7 | 98.5 | 96.8 | > 10 | > 10 | > 10 | > 10 | > 10 | 0 | 0 | 0.1 | 0 | 0 |
| COc1cc(Br)c(Nc2nc(-c3c(C)nc4ncccn34)cs2)c(Br)c1 [PTC-209] | 95.4 | 91.5 | 96.1 | 77.8 | 16.7 | 109 | 102 | 98.9 | 83.2 | 41.2 | 97.1 | 97.5 | 100 | 71.3 | 16.1 | 97.7 | 101 | 98.8 | 55.3 | 11.8 | 99.3 | 99.3 | 95.7 | 43.1 | 15.7 | 1.5 | 1.44 | 1.3 | 0.986 | 0.633 | 8 | 5.7 | 8.7 | 10.4 | 11.7 |
